Assay results: patent US8754073B2, “Substituted piperazino-dihydrothienopyrimidines” (Boehringer Ingelheim International GmbH, priority 2007, dated 2014)

biological target: PDE4B (Homo sapiens, UniProt Q07343); assay: Scintillation Proximity Assay (SPA) of PDE4B enzyme activity ([H3]-cAMP cleavage); assay type: biochemical; conditions: test substance 1 μM; one-hour incubation of [H3]-cAMP with PDE4B enzyme at 30° C.
Outline: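 SPA read-out: [H3]-cAMP incubated with PDE4B in assay buffer for 1 h at 30 °C, with and without test compound at 1 μM. Reaction stopped by adding yttrium silicate beads that bind the [H3]-AMP product; after 45 min settling, scintillation counted. Value is % inhibition at 1 μM.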

Sequence of PDE4B (Q07343 whole entry, species assumed): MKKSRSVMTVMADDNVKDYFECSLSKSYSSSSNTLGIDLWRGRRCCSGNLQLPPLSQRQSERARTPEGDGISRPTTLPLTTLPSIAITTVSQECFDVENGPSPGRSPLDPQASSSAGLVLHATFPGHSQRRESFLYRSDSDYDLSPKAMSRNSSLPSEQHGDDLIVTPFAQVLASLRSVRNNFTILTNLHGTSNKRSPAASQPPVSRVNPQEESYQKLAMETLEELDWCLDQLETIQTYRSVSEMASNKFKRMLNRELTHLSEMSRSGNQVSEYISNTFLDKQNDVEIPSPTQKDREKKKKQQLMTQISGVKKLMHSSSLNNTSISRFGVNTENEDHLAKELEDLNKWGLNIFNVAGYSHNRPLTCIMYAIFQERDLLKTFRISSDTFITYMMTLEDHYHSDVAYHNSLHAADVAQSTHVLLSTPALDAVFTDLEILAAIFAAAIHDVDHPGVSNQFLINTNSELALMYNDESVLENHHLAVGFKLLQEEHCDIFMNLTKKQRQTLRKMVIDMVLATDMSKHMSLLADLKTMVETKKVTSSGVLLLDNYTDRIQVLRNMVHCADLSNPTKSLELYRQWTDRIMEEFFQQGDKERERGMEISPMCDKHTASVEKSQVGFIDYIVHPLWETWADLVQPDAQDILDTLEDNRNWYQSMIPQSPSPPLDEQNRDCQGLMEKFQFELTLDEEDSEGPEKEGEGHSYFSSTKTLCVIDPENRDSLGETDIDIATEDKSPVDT

Row | SMILES | inhibition at 1 µM [%]
1 | Cc1noc(C2CCN(c3nc4c(c(Nc5cccc(F)c5)n3)[S+]([O-])CC4)CC2)n1 (stereo not shown) [Example 83] | 96
2 | Cc1cccc(C2CCN(c3nc4c(c(NC5(CO)CC5)n3)[S+]([O-])CC4)CC2)c1 (stereo not shown) [Example 8] | 93
3 | CC(C)[C@H](CO)Nc1nc(N2CCC(c3nc4cc(Cl)ccc4s3)CC2)nc2c1[S+]([O-])CC2 (stereo partly shown) [Example 149] | 94
4 | N#Cc1cccc(C2CCN(c3nc4c(c(Nc5cccc(F)c5)n3)[S+]([O-])CC4)CC2)c1 (stereo not shown) [Example 138] | 96
5 | [O-][S+]1CCc2nc(N3CCC(c4cccc(F)c4)CC3)nc(NC3(CO)CC3)c21 (stereo not shown) [Example 9] | 95
6 | [O-][S+]1CCc2nc(N3CCC(c4noc5ccc(F)cc45)CC3)nc(Nc3cccc(F)c3)c21 (stereo not shown) [Example 137] | 95
7 | [O-][S+]1CCc2nc(N3CCC(c4cc(-c5ccco5)n[nH]4)CC3)nc(Nc3cccc(F)c3)c21 (stereo not shown) [Example 145, (3-Fluorophenyl)-{2-[4-(5-Furan-2-Yl-2H-Pyrazol-3-Yl)-Piperidin-1-Yl]-5-Oxo-6,7-Dihydro-5H-5λ^4-Thieno[3,2-d]Pyrimidin-4-Yl}-Amine Trifluoracetat] | 96
8 | [O-][S+]1CCc2nc(N3CCC(c4ccc(F)cc4)CC3)nc(NC3(CO)CC3)c21 (stereo not shown) [Example 11] | 94
9 | CN1C[C@@H](Nc2nc(N3CCC(c4ccncc4)CC3)nc3c2[S+]([O-])CC3)CCC1=O (stereo partly shown) [Example 48] | 96
10 | [O-][S+]1CCc2nc(N3CCC(c4noc5cc(F)ccc45)CC3)nc(Nc3cccc(F)c3)c21 (stereo not shown) [Example 136] | 95
11 | CN1C(=O)Nc2ccccc2C12CCN(c1nc3c(c(NC4(CO)CC4)n1)[S+]([O-])CC3)CC2 (stereo not shown) [Example 28, 1-(4-(1-Hydroxymethylcyclopropylamino)-5-Oxo-6,7-Dihydro-5H-5λ^4-Thieno[3,2-d]Pyrimidin-2-Yl)-3′-Methyl-1′H-Spiro[Piperidin-4,4′-Quinazolin]-2′(3′H)-One] | 85
12 | [O-][S+]1CCc2nc(N3CCC(c4noc5ccccc45)CC3)nc(Nc3cccc(F)c3)c21 (stereo not shown) [Example 75, [2-(4-Benzo[d]Isoxazol-3-Yl-Piperidin-1-Yl)-5-Oxo-6,7-6,7-Dihydro-5H-5λ^4-Thieno[3,2-d]Pyrimidin-4-Yl]-(3-Fluorophenyl)-Amine] | 97
13 | [O-][S+]1CCc2nc(N3CCC(c4c[nH]cn4)CC3)nc(NC3CCOCC3)c21 (stereo not shown) [Example 57] | 86
14 | O=C1Nc2ccccc2C2(CCN(c3nc4c(c(NC5CCOCC5)n3)[S+]([O-])CC4)CC2)O1 (stereo not shown) [Example 65] | 94
15 | CC(C)[C@H](CO)Nc1nc(N2CCC(c3ccc4ccccc4c3)CC2)nc2c1[S+]([O-])CC2 (stereo partly shown) [Example 158] | 94
16 | CN1C(=O)Nc2ccccc2C12CCN(c1nc3c(c(Nc4cccc(F)c4)n1)[S+]([O-])CC3)CC2 (stereo not shown) [Example 73, 1-(4-(3-fluorophenylamino)-5-oxo-6,7-dihydro-5H-5λ^4-thieno[3,2-d]pyrimidin-2-yl)-3′-methyl-1′H-spiro[piperidin-4,4′-quinazolin]-2′(3′H)-one] | 94
17 | [O-][S+]1CCc2nc(N3CCC(c4nnc(-c5ccc(F)cc5)o4)CC3)nc(Nc3cccc(F)c3)c21 (stereo not shown) [Example 143] | 95
18 | [O-][S+]1CCc2nc(N3CCC(c4c[nH]cn4)CC3)nc(Nc3cccc(F)c3)c21 (stereo not shown) [Example 72] | 95
19 | [O-][S+]1CCc2nc(N3CCC(c4ccc5ccccc5c4)CC3)nc(NC3(CO)CC3)c21 (stereo not shown) [Example 111] | 96
20 | CC(C)[C@H](CO)Nc1nc(N2CCC(c3nnc(-c4ccc(F)cc4)o3)CC2)nc2c1[S+]([O-])CC2 (stereo partly shown) [Example 159] | 94
21 | CN1C[C@@H](Nc2nc(N3CCC(c4ccc(Cl)cc4)CC3)nc3c2[S+]([O-])CC3)CCC1=O (stereo partly drawn) [Example 5, (S)-5-{2-[4-(4-chlorophenyl)-piperidin-1-yl]-5-oxo-6,7-dihydro-5H-5λ^4-thieno[3,2-d]pyrimidin-4-ylamino}-1-methylpiperidin-2-one] | 94
22 | CC(C)[C@H](CO)Nc1nc(N2CCC(c3cc4ccccc4o3)CC2)nc2c1[S+]([O-])CC2 (stereo partly shown) [Example 157] | 96

same assay, conditions: test substance 1 μM; one-hour incubation with [H3]-cAMP at 30° C.

Row | SMILES | inhibition at 1 µM [%]
23 | CN1C[C@@H](Nc2nc(N3CCC(c4n[nH]c5ccccc45)CC3)nc3c2[S+]([O-])CC3)CCC1=O (stereo partly shown) [Example 219] | 82
24 | [O-][S+]1CCc2nc(N3CCC(Oc4ccc(C5=NCCO5)cc4)CC3)nc(NC3CCOCC3)c21 (stereo not shown) [Example 180, (2-{4-[4-(4,5-dihydroxazol-2-yl)-phenoxy]-piperidin-1-yl}-5-oxo-6,7-dihydro-5H-5λ^4-thieno[3,2-d]pyrimidin-4-yl)-(tetrahydropyran-4-yl)-amine] | 93
25 | [O-][S+]1CCc2nc(N3CCC(OCc4ccccc4)CC3)nc(NC3CCOCC3)c21 (stereo not shown) [Example 172] | 91
26 | Cn1c(C2CCN(c3nc4c(c(NC5CCOCC5)n3)[S+]([O-])CC4)CC2)nc2ccccc21 (stereo not shown) [Example 212] | 93
27 | O=C(c1ccc(C2CCN(c3nc4c(c(NC5CCOCC5)n3)[S+]([O-])CC4)CC2)cc1)N(C1CCOCC1)C1CC1 (stereo not shown) [Example 225] | 89
28 | [O-][S+]1CCc2nc(N3CCC(Oc4ccc(Cl)cc4)CC3)nc(NC3CCOCC3)c21 (stereo not shown) [Example 271] | 92
29 | CC(C)c1ccc(OC2CCN(c3nc4c(c(N[C@H]5CCC(=O)N(C)C5)n3)[S+]([O-])CC4)CC2)cc1 (stereo partly shown) [Example 267] | 78
30 | COC1CCN(c2nc3c(c(NC4CCOCC4)n2)[S+]([O-])CC3)CC1 (stereo not shown) [Example 170] | 77
31 | CN1C[C@@H](Nc2nc(N3CCC(c4cc(-c5cccs5)[nH]n4)CC3)nc3c2[S+]([O-])CC3)CCC1=O (stereo partly shown) [Example 286] | 89
32 | Cc1nn(C)cc1C(C)NC(=O)c1ccc(C2CCN(c3nc4c(c(NC5CCOCC5)n3)[S+]([O-])CC4)CC2)cc1 (stereo not shown) [Example 218] | 94
33 | Cn1cc(C2CCN(c3nc4c(c(NC5CCOCC5)n3)[S+]([O-])CC4)CC2)c2ccccc21 (stereo not shown) [Example 193] | 96
34 | O=C(c1ccc(F)cc1)C1(c2ccc(F)cc2)CCN(c2nc3c(c(Nc4cccc(F)c4)n2)[S+]([O-])CC3)CC1 (stereo not shown) [Example 299] | 90
35 | Cc1oc(C2CCN(c3nc4c(c(N[C@H]5CCC(=O)N(C)C5)n3)[S+]([O-])CC4)CC2)nc1-c1ccccc1 (stereo partly shown) [Example 275, 1-methyl-5-{2-[4-(5-methyl-4-phenyloxazol-2-yl)-piperidin-1-yl]-5-oxo-6,7-dihydro-5H-5λ^4-thieno[3,2-d]pyrimidin-4-ylamino}-piperidin-2-one] | 95
36 | COC1(c2ccc(Cl)cc2)CCN(c2nc3c(c(NC4(CO)CC4)n2)[S+]([O-])CC3)CC1 (stereo not shown) [Example 314] | 88
37 | CN1C[C@@H](Nc2nc(N3CCC(c4nc(-c5ccccc5)c(-c5ccccc5)o4)CC3)nc3c2[S+]([O-])CC3)CCC1=O (stereo partly shown) [Example 278, 5-{2-[4-(4,5-diphenyloxazol-2-yl)-piperidin-1-yl]-5-oxo-6,7-dihydro-5H-5λ^4-thieno[3,2-d]pyrimidin-4-ylamino}-1-methylpiperidin-2-one] | 95
38 | CC(C)c1ccc(OC2CCN(c3nc4c(c(NC5CCOCC5)n3)[S+]([O-])CC4)CC2)cc1 (stereo not shown) [Example 269] | 94
39 | NC1CC1Nc1nc(N2CCC(c3ccc(Cl)cc3)CC2)nc2c1[S+]([O-])CC2 (single isomer, unassigned) [Example 232, N-{2-[4-(4-Chlorophenyl)-Piperidin-1-Yl]-5-Oxo-6,7-Dihydro-5H-5λ^4-Thieno[3,2-d]Pyrimidin-4-Yl}-Cyclopropan-1,2-Diamine] | 84
40 | COC1(c2cc(F)cc(F)c2)CCN(c2nc3c(c(N[C@H]4CCC(=O)N(C)C4)n2)[S+]([O-])CC3)CC1 (stereo partly shown) [Example 273, 5-{2-[4-(3,5-difluorophenyl)-4-methoxypiperidin-1-yl]-5-oxo-6,7-dihydro-5H-5λ^4-thieno[3,2-d]pyrimidin-4-ylamino}-1-methylpiperidin-2-one] | 94
41 | CN1CCC(N(C)C(=O)c2ccc(OC3CCN(c4nc5c(c(NC6CCOCC6)n4)[S+]([O-])CC5)CC3)cc2)CC1 (stereo not shown) [Example 241] | 93
42 | [O-][S+]1CCc2nc(N3CCC(Oc4ccc5c(c4)CCNCC5)CC3)nc(NC3CCOCC3)c21 (stereo not shown) [Example 183, (5-Oxo-2-[4-(2,3,4,5-Tetrahydro-1H-Benzo[d]Azepin-7-Yloxy)-Piperidin-1-Yl]-6,7-Dihydro-5H-5λ^4-Thieno[3,2-d]Pyrimidin-4-Yl)-(Tetrahydropyran-4-Yl)-Amine] | 91
43 | O=C(O)c1ccc(OC2CCN(c3nc4c(c(NC5CCOCC5)n3)[S+]([O-])CC4)CC2)cc1 (stereo not shown) [Example 184, 4-{1-[5-Oxo-4-(Tetrahydropyran-4-Ylamino)-6,7-Dihydro-5H-5λ^4-Thieno[3,2-d]Pyrimidin-2-Yl]-Piperidin-4-Yloxy}-Benzoic Acid] | 92
44 | CS(=O)(=O)NCC1(c2ccccc2)CCN(c2nc3c(c(Nc4cccc(F)c4)n2)[S+]([O-])CC3)CC1 (stereo not shown) [Example 327] | 83
45 | COCC1(c2ccc(Cl)cc2)CCN(c2nc3c(c(NC4(CO)CC4)n2)[S+]([O-])CC3)CC1 (stereo not shown) [Example 303] | 89
46 | Cc1cn(C)nc1CN(C)C(=O)c1cccc(C2CCN(c3nc4c(c(NC5CCOCC5)n3)[S+]([O-])CC4)CC2)c1 (stereo not shown) [Example 258] | 93
47 | COCC1(c2ccc(Cl)cc2)CCN(c2nc3c(c(N[C@H]4CCC(=O)N(C)C4)n2)[S+]([O-])CC3)CC1 (stereo partly shown) [Example 260, 5-{2-[4-(4-chlorophenyl)-4-methoxymethylpiperidin-1-yl]-5-oxo-6,7-dihydro-5H-5μ^4-thieno[3,2-d]pyrimidin-4-ylamino}-1-methylpiperidin-2-one] | 96
48 | [O-][S+]1CCc2nc(N3CCC(c4cc(-c5cccs5)[nH]n4)CC3)nc(NC3(CO)CC3)c21 (stereo not shown) [Example 285] | 90
49 | [O-][S+]1CCc2nc(N3CCC(O)(c4ccc(Cl)cc4)CC3)nc(NC3CCOCC3)c21 (stereo not shown) [Example 288] | 89
